Reference: patent US7902361B2, “Pyrimidin-4-yl-3, 4-thione compounds and their use in therapy” (Cyclacel Limited, priority 2003, dated 2011)

Experiments:
CDK1/cyclin B = CDK1/cyclin B (Homo sapiens, UniProt P06493); assay: Kinase assay CDK1/cyclin B (radioactive phosphate incorporation); assay type: biochemical; details: Ki calculated (Cheng-Prusoff) from experimentally determined IC50 and Km,ATP; read-out: Kinase Inhibition Ki CDK1 - cyclin B
How it was run: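 Radiometric assays measured transfer of radioactive phosphate from ATP onto polypeptide substrates, using 2-4 μg recombinant active enzyme in buffer typically containing 25 mM β-glycerophosphate, 20 mM MOPS, 5 mM EGTA, 1 mM DTT and 1 mM Na3VO3 at pH 7.4. Reactions were stopped on ice, filtered on P81 or GF/C plates and washed with orthophosphoric acid. Incorporated radioactivity was scintillation-counted.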

glycogen synthase = assay: Glycogen synthase activation in rat myotubes; assay type: cell-based; details: for EC50: Myotube; for Max FI (% to LiCl): maximum fold induction normalised to 40 mM LiCl
Experimental: Rat myotubes were differentiated from L6.G8.C5 myoblasts, which were grown in DMEM, 10% FCS and antibiotics until confluent. The medium was then removed, cells washed with PBS and differentiation medium containing minimal essential media eagles (alpha modified) supplemented with 2% FCS and antibiotics. The cells were cultured for 3-4 days until >90% of cells had formed multinucleated myotubes. The differentiated cells were then used for determination of glycogen synthase activation after treatment with GSK3 inhibitor example compounds.
HEK293 cells, mouse adipocytes or rat myotubes were treated in 10-cm Petri dishes with different concentrations of GSK3 inhibitor example compounds for 90 minutes. At the end of the treatment period the cells were washed and scraped in ice cold PBS buffer supplemented with 20 mM NaF. The cells were pelleted by centrifugation and lysed in 300 μL buffer (50 mM.HEPES pH 7.5, 10 mM EDTA, 100 mM NaF, 5 mM DTT, protease inhibitor cocktail (Sigma)). After incubation for 30 min on ice the samples were cleared by centrifugation. The activity of glycogen synthase was determined in the soluble fraction at two different concentrations of […]—low (0.1 mM) and high (10 mM). The reaction was carried out for 30 min (buffer: 50 mM Tris pH 7.8, 20 mM EDTA, 25 mM NaF, 5 mM DTT). The reaction mixture (total volume of 90 μL) contained 1% glycogen, 0.3 mM UDP-glucose and 0.06 μCi ^14C-UDP-glucose. Reaction was stopped by transfer of 70 μL to a GFC 96-well filter plate, containing 140 μL 100% ethanol and the glycogen was allowed to precipitate for 1 h at 4° C. The wells were washed 2 times with 200 μL 66% ethanol and than allowed to dry. Subsequently, 100 μL of scintillation liquid was added, and plates were sealed and counted in a Packard Topcounter. Glycogen synthase activation was calculated as the ratio between the incorporation of labelled ^14C-UDP-glucose in glycogen at low and high concentration of […] (fractional velocity).
The ability of GSK3 inhibitors to activate glycogen synthase was determined in HEK293 cells, mouse adipocytes and rat myotubed. The compounds tested activated glycogen synthase in all three cellular systems with EC50 values in the sub-micromolar to low micromolar concentration range. Most of them exceeded the stimulation induced by 40 mM LiCl (the highest compound concentration used in the assay was 20 μM).

Chain of CDK1/cyclin B (P06493 whole entry, species assumed): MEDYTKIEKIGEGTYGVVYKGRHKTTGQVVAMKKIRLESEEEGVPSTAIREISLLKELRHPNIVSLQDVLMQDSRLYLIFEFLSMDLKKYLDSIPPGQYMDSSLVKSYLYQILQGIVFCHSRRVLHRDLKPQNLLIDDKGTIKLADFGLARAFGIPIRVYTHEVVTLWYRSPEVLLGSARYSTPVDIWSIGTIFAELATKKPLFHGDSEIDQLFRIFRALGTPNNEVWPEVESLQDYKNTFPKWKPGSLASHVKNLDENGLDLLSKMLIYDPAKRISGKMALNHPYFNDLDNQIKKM
Chain of CDK1/cyclin B (P14635 whole entry partner, species assumed): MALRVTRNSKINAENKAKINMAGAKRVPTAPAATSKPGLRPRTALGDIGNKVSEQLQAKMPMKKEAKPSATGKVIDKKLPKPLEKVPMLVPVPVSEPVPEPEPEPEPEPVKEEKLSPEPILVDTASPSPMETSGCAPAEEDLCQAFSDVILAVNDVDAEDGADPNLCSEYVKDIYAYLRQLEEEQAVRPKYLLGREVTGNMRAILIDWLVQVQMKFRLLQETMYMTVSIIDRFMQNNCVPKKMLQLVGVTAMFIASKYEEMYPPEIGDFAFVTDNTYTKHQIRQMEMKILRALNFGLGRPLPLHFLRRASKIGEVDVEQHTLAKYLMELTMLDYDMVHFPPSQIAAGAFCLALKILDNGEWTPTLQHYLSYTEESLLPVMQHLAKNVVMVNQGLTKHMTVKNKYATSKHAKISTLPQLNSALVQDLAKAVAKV

In the case of `Cc1c(-c2ccnc(Nc3cccc(S(=O)(=O)NCCO)c3)n2)sc(=O)n1C` [Compound 75, 3-[4-(3,4-Dimethyl-2-oxo-2,3-dihydro-thiazol-5-yl)-pyrimidin-2-ylamino]-N-(2-hydroxy-ethyl)-benzenesulfonamide], the Ki (CDK1/cyclin B) is reported as 620 nM, the EC50 (glycogen synthase) is reported as 8490 ± 2480 nM and the “Max FI (% to LiCl)” value (glycogen synthase) is reported as 157 % to LiCl.

For `CCNS(=O)(=O)c1cccc(Nc2nccc(-c3sc(=O)n(C)c3C)n2)c1` [Compound 62, 3-[4-(3,4-Dimethyl-2-oxo-2,3-dihydro-thiazol-5-yl)-pyrimidin-2-ylamino]-N-ethyl-benzenesulfonamide], the Ki (CDK1/cyclin B) was 430 nM, the EC50 (glycogen synthase) was 1610 ± 199 nM and the “Max FI (% to LiCl)” value (glycogen synthase) was 130 % to LiCl.

For `CC(=O)Nc1cc(Nc2nccc(-c3sc(=O)n(C)c3C)n2)cc(C(F)(F)F)c1` [Compound 64, N-{3-[4-(3,4-Dimethyl-2-oxo-2,3-dihydro-thiazol-5-yl)-pyrimidin-2-ylamino]-5-trifluoromethyl-phenyl}-acetamide], the Ki (CDK1/cyclin B) was 870 nM, the EC50 (glycogen synthase) was 1240 ± 610 nM and the “Max FI (% to LiCl)” value (glycogen synthase) was 152 % to LiCl.

For `COCCNS(=O)(=O)c1cccc(Nc2nccc(-c3sc(=O)n(C)c3C)n2)c1` [Compound 67, 3-[4-(3,4-Dimethyl-2-oxo-2,3-dihydro-thiazol-5-yl)-pyrimidin-2-ylamino]-N-(2-methoxy-ethyl)-benzenesulfonamide], the EC50 (glycogen synthase) was 10500 ± 990 nM and the “Max FI (% to LiCl)” value (glycogen synthase) was 112 % to LiCl.
